Laboratory results as given in patent US20150017673A1, “COMPOSITIONS AND METHODS FOR DRUG-SENSITIZATION OR INHIBITION OF A CANCER CELL” (priority 2012, published 2015).
Like-named read-outs stand apart in the source and are kept apart here.

Columns and labels:
[1] = test system: lymphoma cell line G3; test: Cell growth assay (resazurin fluorescence) on CHOP-resistant G3 NHL cells; type: cell-based, human; conditions: for Magnitude of potentiation in combination with doxorubicin: G3, lymphoma B cells
Procedure: (§1) Compositions were tested on CHOP-resistant G3 NHL cells that had been cultivated in RPMI medium for five days. Prior to assay, the cells were counted by haemocytometer and cell concentration standardized to 625,000 cells/ml. Test drugs were solubilized in 100% DMSO and then diluted to final assay concentration with 0.1M phosphate buffered saline (PBS) and a final DMSO concentration of 0.5%. Cells were added to assay plates containing the test drugs (rifabutin+148 ng/ml, 74 ng/ml, 37 ng/ml, or 0 ng/ml doxorubicin) and allowed to incubate for 96 hours at 37° C. and 5% CO2. The metabolic dye rezasurin was added to the wells of the assay plate at a final concentration of 20 μg/ml and the plates were incubated for an additional 24 hours. The plates were then read in a BMG Polarstar plate reader at wavelength (573-605) and the data plotted as OD versus increasing dilutions (i.e. decreasing total amounts) of rifabutin derivative concentration.

[2] = test system: multi-drug-resistant breast cancer cell line MDA-MB-231; test: Cell growth assay on MDA-MB-231 cells; type: cell-based; conditions: for Magnitude of potentiation in combination with doxorubicin: MDA-MB-231, breast carcinoma; for IC50: Homo sapiens
Procedure: as §1
(§2) In these experiments, the following cell lines were used: CHOP-resistant NHL cell line G3, CHOP-sensitive NHL cell line CRL2631, the multi-drug resistant sarcoma cell line MES-SA-Dx5; multi-drug-resistant breast cancer cell line MDA-MB-231, multi-drug resistant ovarian carcinoma cell line SK-OV3, multi-drug resistant ovarian cancer cell line NCI/ADR-RES, drug-sensitive ovarian cancer cell line OVCAR-5, and multi-drug resistant ovarian cancer cell line OVCAR-3.
(§3) Additional cell lines used include: ovarian cancer OVCAR-8, T lymphoblastoid leukemia MOLT-4, dexamethasone-resistant multiple myeloma MM.1R, myeloid leukemia cells HL-60, osteosarcoma cells U-2 OS, and myeloma RPMI 8226.

[3] = test system: multi-drug resistant ovarian cancer cell line OVCAR-3; test: Cell growth assay on OVCAR-3 cells; type: cell-based; conditions: OVCAR-3, ovarian carcinoma
Procedure: as §1
as §2, with “OVCAR-3. […]” for “OVCAR-3.”

[4] = test system: multi-drug resistant ovarian carcinoma cell line SK-OV3; test: Cell growth assay on SK-OV3 cells; type: cell-based, human; conditions: SK-OV3, ovarian carcinoma
Procedure: as §1
as §2, with “OVCAR-3. […]” for “OVCAR-3.”

[5] = test system: ROS in G3 lymphoma cells; test: Intracellular ROS (CellROX, flow cytometry) in G3 cells; type: cell-based, human; conditions: 10 uM, FIG. 40
Procedure: Cells were then stained with the fluorescent ROS indicator, CellROX, and subjected to flow cytometry to quantitate total intracellular ROS.
The electron transport chain (ETC) is known to be a primary generator of ROS in the cell. Most of the ROS is generated by Complexes I and III of the ETC Inhibition of Complex I results in electrons piling up and leaking to react with oxygen to produce ROS.
All samples were analyzed at the same time in flow cytometry.

[6] = test system: multi-drug resistant ovarian cancer cell line NCI/ADR-RES; test: Cell growth assay on NCI/ADR-RES cells; type: cell-based; conditions: NCI/ADR-RES, ovarian carcinoma
Procedure: as §1, §2, §3

[7] = analog alone, lymphoma cell line G3, read-out: IC50
[8] = with 1 μM doxorubicin, lymphoma cell line G3, read-out: IC50 (μM) with doxorubicin (1 μM)

| Molecule | IC50 [1, 7] | Fold increase in potency over DOX alone ([1]; lymphoma cell line G3) | IC50 [1, 8] | Magnitude of potentiation in combination with doxorubicin [3] | Magnitude of potentiation in combination with doxorubicin [4] | also measured |
| --- | --- | --- | --- | --- | --- | --- |
| 11-deoxy-11-imino-4-deoxy-3,4[2-spiro-[1- (ethylaminocarbonyl)-piperidin-4-yl]]-(1H)-imidazo-(2,5- dihydro)rifamycin S [RTI-82] | > 64 µM | 0.7 fold | 3.5 µM | – | – | Magnitude of potentiation in combination with doxorubicin [2]: +++ (potentiation greater than 5 fold increase) |
| COC1C=COC2(C)Oc3c(C)c(O)c4c(c3C2=N)C2=NC3(CCN(CCN5CCOCC5)CC3)NC2=C(NC(=O)C(C)=CC=CC(C)C(O)C(C)C(O)C(C)C(OC(C)=O)C1C)C4=O (stereo not shown) [RTI-53, 11-deoxy-11-imino-4-deoxy-3,4[2-spiro-[1-(2-morpholinoethyl)-piperidin-4-yl]]-(1H)-imidazo-(2,5-dihydro)rifamycin S] | > 64 µM | 0.2 fold | 11.8 µM | + (potentiation between 1.2 to 2.0 fold increase) | + (potentiation between 1.2 to 2.0 fold increase) | – |
| CC(=O)OCOC(=O)CN(CC(=O)OCOC(C)=O)c1ccccc1OCCOc1ccccc1N(CC(=O)OCOC(C)=O)CC(=O)OCOC(C)=O [BAPTA-AM] | – | – | – | – | – | ROS levels [5]: induced ROS |
| COC1C=COC2(C)Oc3c(C)c(O)c4c(c3C2N)C2=NC3(CCN(C(=O)NCC(C)C)CC3)NC2=C(NC(=O)C(C)=CC=CC(C)C(O)C(C)C(O)C(C)C(OC(C)=O)C1C)C4=O (stereo not shown) [RTI-183, 11-deoxy-11-amino-4-deoxy-3,4[2-spiro-[1-(isobutylaminocarbonyl)-piperidin-4-yl]]-(1H)-imidazo-(2,5-dihydro)rifamycin S] | > 64 µM | 0.5 fold | 5.19 µM | + (potentiation between 1.2 to 2.0 fold increase) | – | – |
| COC1C=COC2(C)Oc3c(C)c(O)c4c(c3C2=N)C2=NC3(CCN(C(=O)NCC(C)C)CC3)NC2=C(NC(=O)C(C)=CC=CC(C)C(O)C(C)C(O)C(C)C(OC(C)=O)C1C)C4=O (stereo not shown) [RTI-182, 11-deoxy-11-imino-4-deoxy-3,4[2-spiro-[1-(isobutylaminocarbonyl)-piperidin-4-yl]]-(1H)-imidazo-(2,5-dihydro)rifamycin S] | 62 µM | 2.0 fold | 1.2 µM | + (potentiation between 1.2 to 2.0 fold increase) | ++ (potentiation between 2.1 to 5 fold increase) | Magnitude of potentiation in combination with doxorubicin [1]: + (potentiation between 1.2 to 2.0 fold increase); Magnitude of potentiation in combination with doxorubicin [2]: ++ (potentiation between 2.1 to 5 fold increase) |
| Nc1ccn([C@@H]2O[C@H](CO)[C@@H](O)C2(F)F)c(=O)n1 [Gemcitabine, gemcitabine] | – | – | – | – | – | IC50 ([2]; therapeutic drug alone, MDA-MB-231, read-out: IC50): > 32 µM; IC50 ([2]; therapeutic drug with Rifabutin, MDA-MB-231, read-out: IC50 (μM) with Rifabutin): 4.83 µM; Fold increase in potency ([2]; with vs without Rifabutin, MDA-MB-231): >6.6 fold |
| CC[C@]1(O)C[C@@H]2CN(CCc3c([nH]c4ccccc34)[C@@](C(=O)OC)(c3cc4c(cc3OC)N(C)[C@H]3[C@@](O)(C(=O)OC)[C@H](OC(C)=O)[C@]5(CC)C=CCN6CC[C@]43[C@@H]65)C2)C1 [Vinblastine, vinblastine] | – | – | – | – | – | IC50 ([1]; Homo sapiens, therapeutic drug alone, G3, read-out: IC50): 8 µM; IC50 ([1]; Homo sapiens, therapeutic drug with Rifabutin, G3, read-out: IC50 (μM) with Rifabutin): 1 µM; Fold increase in potency ([1]; with vs without Rifabutin, G3): 8.0 fold |
| COC1C=COC2(C)Oc3c(C)c(O)c4c(c3C2O)C2=NC3(CCN(CC(C)C)CC3)NC2=C(NC(=O)C(C)=CC=CC(C)C(O)C(C)C(O)C(C)C(OC(C)=O)C1C)C4=O (stereo not shown) [RTI-174, 11-deoxy-11-hydroxy-4-deoxy-3,4[2-spiro-[1-(2-methylpropyl)-piperidin-4-yl]]-(1H)-imidazo-(2,5-dihydro)rifamycin S] | 51 µM | 3.7 fold | 0.64 µM | + (potentiation between 1.2 to 2.0 fold increase) | + (potentiation between 1.2 to 2.0 fold increase) | Magnitude of potentiation in combination with doxorubicin [6]: + (potentiation between 1.2 to 2.0 fold increase); Magnitude of potentiation in combination with doxorubicin [1]: ++ (potentiation between 2.1 to 5 fold increase) |
| O=c1[nH]c2ccccc2n1C1CCN(Cc2ccc(-c3nc4cc5[nH]cnc5cc4nc3-c3ccccc3)cc2)CC1 [Akt Inhibitor VIII] | – | – | – | – | – | CHOP resistance ([1]; G3 cells, varying amounts of Akt Inhibitor VIII): dose-dependent reversal of CHOP resistance |
| COC1C=COC2(C)Oc3c(C)c(O)c4c(c3C2=O)C2=NC3(CCN(C(=O)NCC(C)C)CC3)NC2=C(NC(=O)C(C)=CC=CC(C)C(O)C(C)C(O)C(C)C(OC(C)=O)C1C)C4=O (stereo not shown) [RTI-102, 4-deoxy-3,4[2-spiro-[1-(isobutylaminocarbonyl)-piperidin-4-yl]]-(1H)-imidazo-(2,5-dihydro)rifamycin S] | > 64 µM | 2.5 fold | 0.95 µM | – | +++ (potentiation greater than 5 fold increase) | Magnitude of potentiation in combination with doxorubicin [1]: ++ (potentiation between 2.1 to 5 fold increase) |
| 11-deoxy-11-imino-4-deoxy-3,4[2-spiro-[1-(2-methoxyethyl)- piperidin-4-yl]]-(1H)-imidazo-(2,5-dihydro)rifamycin S [RTI-51] | > 64 µM | 0.7 fold | 3.3 µM | + (potentiation between 1.2 to 2.0 fold increase) | + (potentiation between 1.2 to 2.0 fold increase) | – |
| C=C(C)[C@H]1Cc2c(ccc3c2O[C@@H]2COc4cc(OC)c(OC)cc4[C@@H]2C3=O)O1 [Rotenone, rotenone] | – | – | – | – | – | ROS levels [5]: induced ROS |
| COC1C=COC2(C)Oc3c(C)c(O)c4c(c3C2N)C2=NC3(CCN(CC(C)C)CC3)NC2=C(NC(=O)C(C)=CC=CC(C)C(O)C(C)C(O)C(C)C(OC(C)=O)C1C)C4=O (stereo not shown) [RTI-181, 11-deoxy-11-amino-4-deoxy-3,4[2-spiro-[1-(2-methylpropyl)-piperidin-4-yl]]-(1H)-imidazo-(2,5-dihydro)rifamycin S] | 52 µM | 5.5 fold | 0.43 µM | + (potentiation between 1.2 to 2.0 fold increase) | +++ (potentiation greater than 5 fold increase) | Magnitude of potentiation in combination with doxorubicin [1]: +++ (potentiation greater than 5 fold increase) |
| 4-deoxy-3,4[2-spiro-[1-(n-propyloxycarbonyl)-piperidin-4-yl]]- (1H)-imidazo-(2,5-dihydro)rifamycin S [RTI-78] | 58 µM | 29.5 fold | 0.08 µM | – | – | – |
